Laboratory results reported in patent US8703796B2, “3H-imidazo [4, 5-B] pyridine-6-carboxamides as anti-inflammatory agents” (Boehringer Ingelheim International GmbH, priority 2008, dated 2014).
Where a name gives a salt, the structure may show the parent alone.

These compounds were tested against T1, recombinant human mPGES-1 (Homo sapiens, UniProt O14684) (assay: mPGES-1 inhibition, HTRF detection of PGE2).
T1 construct: made in house; host or cells: Rosetta E. coli (microsomal/membrane fraction)
T1 sequence (O14684 1-152): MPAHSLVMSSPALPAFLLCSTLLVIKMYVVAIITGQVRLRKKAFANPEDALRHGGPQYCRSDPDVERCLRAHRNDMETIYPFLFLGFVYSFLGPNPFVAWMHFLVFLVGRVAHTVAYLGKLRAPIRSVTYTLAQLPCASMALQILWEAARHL
Format: biochemical
Protocol: Microsomes from Rosetta E. coli bacteria expressing recombinant human mPGES-1 is dissolved in 0.1 M KPi pH 7.4 buffer containing 2.5 mM GSH. 50 μl of the enzyme is subsequently dispensed in a 384-well plate. 0.5 μl of the inhibitor dissolved in DMSO at is thereafter added to each well and incubated for 25 minutes at room temperature. Subsequently, 2 μl of PGH2 dissolved in an appropriate solvent is added to each well and after one minute the acidified stop solution containing FeCl2 is added. 4 μl of the total volume is transferred to a separate plate and diluted 750-fold in two separate steps before HTRF detection of PGE2.
The HTRf detection is performed by the use of a commercially available kit from CisBio essentially according to the manufacturer's protocol. Briefly, 10 μl of the diluted sample is transferred to a white 384-well plate. 5 μl of d2 and 5 μl Eu3+-Cryptate labeled anti-PGE2 is added to each well containing samples by the use of a Multidrop. The plate is covered with a plastic self-adhesive film, centrifuged at 1200 rpm for 1 minute and subsequently stored at +4° C. over night.
After over night incubation the fluorescence is measured by the use of an appropriate microplate reader. The fluorescence of europium cryptate, and d2 are measured using the following excitation and emission wavelength, europium cryptate: λmax^ex=307 nm, λmax^em=620 nm and d2: λmax^ex=620 nm, λmax^em=665 nm), respectively. The extent of the specific FRET is measured as a ratio of the emission intensity at 665 nm vs. that at 620 nm. A standard curve using synthetic PGE2 is used to quantify the amount of PGE2 in unknown samples.

Point of comparison: O=C(NC1CCC2(CC1)CC2)c1cnc2[nH]c(Nc3c(Cl)cccc3Cl)nc2c1 [Example 485, 2-(2,6-Dichlorophenylamino)-N-(spiro[2.5]octan-6-yl)-3H-imidazo[4,5-b]pyridine-6-carboxamide], inhibition at 10 µM 98%. Against it:
- O=C(Nc1ccc(Cl)c(F)c1)c1cnc2[nH]c(Nc3c(Cl)cccc3Cl)nc2c1 [Example 154, 2-(2,6-Dichloro-phenylamino)-3H-imidazo[4,5-b]-pyridine-6-carboxylic acid (4-chloro-3-fluoro-phenyl)-amide] — lower, 91%
- Cn1c(Nc2c(Cl)cccc2Cl)nc2cc(C(=O)N[C@H]3CC[C@H](C(F)(F)F)CC3)cnc21 [Example 174, 2-(2,6-Dichloro-phenylamino)-3-methyl-3H-imidazo[4,5-b]pyridine-6-carboxylic acid (trans-4-trifluoromethyl-cyclohexyl)-amide] — higher, 99%
- COc1nc2c(cc1C(=O)Nc1ccc(Br)cc1)nc(Nc1c(Cl)cccc1Cl)n2C [Example 377, N-(4-Bromophenyl)-2-(2,6-dichlorophenylamino)-5-methoxy-3-methyl-3H-imidazo[4,5-b]pyridine-6-carboxamide] — higher, 100%
- CC(C)(C)[C@H]1CC[C@H](NC(=O)c2cnc3[nH]c(Nc4c(Cl)cccc4Cl)nc3c2)CC1 [Example 379, N-((1r,4r)-4-tert.-Butylcyclohexyl)-2-(2,6-dichlorophenylamino)-3H-imidazo[4,5-b]pyridine-6-carboxamide] — higher, 100%
- COc1nc2c(cc1C(=O)Nc1cc(C(F)(F)F)ccn1)nc(Nc1c(Cl)cccc1Cl)n2C [Example 386, 2-(2,6-Dichloro-phenylamino)-5-methoxy-3-methyl-N-(4-trifluoromethyl-pyridin-2-yl)-3H-imidazo[4,5-b]pyridine-6-carboxamide formate] — higher, 99%
- Cn1c(Nc2c(Cl)cccc2Cl)nc2cc(C(=O)NC3CCC(C(C)(C)C)CC3)cnc21 (stereo not drawn) [Example 393, N-(4-tert-Butylcyclohexyl)-2-(2,6-dichlorophenylamino)-3-methyl-3H-imidazo[4,5-b]pyridine-6-carboxamide] — higher, 99%
- CC(C)[C@H]1CC[C@H](NC(=O)c2cnc3[nH]c(Nc4c(Cl)cccc4Cl)nc3c2)CC1 [Example 394, 2-(2,6-Dichlorophenylamino)-N-((1r,4r)-4-isopropylcyclohexyl)-3H-imidazo[4,5-b]pyridine-6-carboxamide] — higher, 100%
- CC(C)[C@H]1CC[C@H](NC(=O)c2cnc3c(c2)nc(Nc2c(Cl)cccc2Cl)n3C)CC1 [Example 400, 2-(2,6-Dichlorophenylamino)-N-((1r,4r)-4-isopropylcyclohexyl)-3-methyl-3H-imidazo[4,5-b]pyridine-6-carboxamide] — lower, 97%
- O=C(Nc1ccc(Br)cc1)c1cnc2[nH]c(Nc3c(Cl)cccc3Cl)nc2c1 [Example 401, N-(4-Bromophenyl)-2-(2,6-dichlorophenylamino)-3H-imidazo[4,5-b]pyridine-6-carboxamide] — higher, 100%
- CCCCCCCCNC(=O)c1cnc2c(c1)nc(Nc1c(Cl)cccc1Cl)n2C [Example 403, 2-(2,6-Dichlorophenylamino)-3-methyl-N-octyl-3H-imidazo[4,5-b]pyridine-6-carboxamide] — higher, 100%
- CCCCCC[C@@H](C)NC(=O)c1cnc2c(c1)nc(Nc1c(Cl)cccc1Cl)n2C [Example 411, (R)-2-(2,6-Dichlorophenylamino)-3-methyl-N-(oct-2-yl)-3H-imidazo[4,5-b]pyridine-6-carboxamide] — higher, 100%
- CC1(C)CCC(NC(=O)c2cnc3c(c2)nc(Nc2c(Cl)cccc2Cl)n3Cc2ccccc2)CC1 [Example 413, 3-Benzyl-2-(2,6-dichlorophenylamino)-N-(4,4-dimethylcyclohexyl)-3H-imidazo[4,5-b]pyridine-6-carboxamide] — higher, 100%
- CC1(C)CCC(NC(=O)c2cnc3[nH]c(Nc4c(Cl)cccc4Cl)nc3c2)CC1 [Example 429, 2-(2,6-Dichlorophenylamino)-N-(4,4-dimethylcyclohexyl)-3H-imidazo[4,5-b]pyridine-6-carboxamide] — lower, 97%
- CCC1CCC(NC(=O)c2cnc3c(c2)nc(Nc2c(Cl)cccc2Cl)n3C)CC1 (stereo not drawn) [Example 438, 2-(2,6-Dichlorophenylamino)-N-(4-ethylcyclohexyl)-3-methyl-3H-imidazo[4,5-b]pyridine-6-carboxamide] — higher, 100%
- CCCCCCNC(=O)c1cnc2c(c1)nc(Nc1c(Cl)cccc1Cl)n2C [Example 439, 2-(2,6-Dichlorophenylamino)-N-hexyl-3-methyl-3H-imidazo[4,5-b]pyridine-6-carboxamide] — lower, 91%
- CCCCCCCNC(=O)c1cnc2c(c1)nc(Nc1c(Cl)cccc1Cl)n2C [Example 448, 2-(2,6-Dichlorophenylamino)-N-heptyl-3-methyl-3H-imidazo[4,5-b]pyridine-6-carboxamide] — higher, 100%
- CCCCC[C@@H](C)NC(=O)c1cnc2c(c1)nc(Nc1c(Cl)cccc1Cl)n2C [Example 449, (R)-2-(2,6-Dichlorophenylamino)-N-(hept-2-yl)-3-methyl-3H-imidazo[4,5-b]pyridine-6-carboxamide] — the same, 98%
- Cn1c(Nc2c(Cl)cccc2Cl)nc2cc(C(=O)N[C@H]3CC[C@H](C)CC3)cnc21 [Example 453, 2-(2,6-Dichlorophenylamino)-3-methyl-N-((1r,4r)-4-methylcyclohexyl)-3H-imidazo[4,5-b]pyridine-6-carboxamide] — the same, 98%
- Cn1c(Nc2c(Cl)cccc2Cl)nc2cc(C(=O)NC3CCCC(C)(C)C3)cnc21 (stereo not drawn) [Example 454, 2-(2,6-Dichlorophenylamino)-N-(3,3-dimethylcyclohexyl)-3-methyl-3H-imidazo[4,5-b]pyridine-6-carboxamide] — higher, 99%
- O=C(N[C@H]1CC[C@H](C(F)(F)F)CC1)c1cnc2[nH]c(Nc3c(Cl)cccc3Cl)nc2c1 [Example 459, 2-(2,6-Dichlorophenylamino)-N-((1r,4r)-4-trifluoromethyl-cyclohexyl)-3H-imidazo[4,5-b]pyridine-6-carboxamide] — higher, 100%
- Cn1c(Nc2c(Cl)cccc2Cl)nc2cc(C(=O)Nc3ccc(Br)cc3)cnc21 [Example 463, N-(4-Bromophenyl)-2-(2,6-dichlorophenylamino)-3-methyl-3H-imidazo[4,5-b]pyridine-6-carboxamide] — lower, 97%
- CC1(C)CCC(NC(=O)c2cnc3[nH]c(Nc4c(F)cccc4Cl)nc3c2)CC1 [Example 466, 2-(2-Chloro-6-fluorophenylamino)-N-(4,4-dimethylcyclohexyl)-3H-imidazo[4,5-b]pyridine-6-carboxamide] — higher, 100%
- Cn1c(Nc2c(Cl)cccc2Cl)nc2cc(C(=O)NCc3ccccc3C(F)(F)F)cnc21 [Example 468, 2-(2,6-Dichlorophenylamino)-3-methyl-N-(2-trifluoromethyl-benzyl)-3H-imidazo[4,5-b]pyridine-6-carboxamide] — the same, 98%
- CC1(C)CCCC(NC(=O)c2cnc3[nH]c(Nc4c(Cl)cccc4Cl)nc3c2)C1 (stereo not drawn) [Example 469, 2-(2,6-Dichlorophenylamino)-N-(3,3-dimethylcyclohexyl)-3H-imidazo[4,5-b]pyridine-6-carboxamide] — higher, 100%
- CCCCCC[C@H](C)NC(=O)c1cnc2c(c1)nc(Nc1c(Cl)cccc1Cl)n2C [Example 471, (S)-2-(2,6-Dichlorophenylamino)-3-methyl-N-(oct-2-yl)-3H-imidazo[4,5-b]pyridine-6-carboxamide] — higher, 99%
- CCCC(CCC)NC(=O)c1cnc2c(c1)nc(Nc1c(Cl)cccc1Cl)n2C [Example 473, 2-(2,6-Dichlorophenylamino)-N-(hept-4-yl)-3-methyl-3H-imidazo[4,5-b]pyridine-6-carboxamide] — higher, 99%
- Cn1c(Nc2c(F)cccc2Cl)nc2cc(C(=O)Nc3ccc(Br)cc3)cnc21 [Example 480, N-(4-Bromophenyl)-2-(2-chloro-6-fluorophenylamino)-3-methyl-3H-imidazo[4,5-b]pyridine-6-carboxamide] — higher, 100%
- Cn1c(Nc2c(F)cccc2Cl)nc2cc(C(=O)N[C@H]3CC[C@H](C)CC3)cnc21 [Example 486, 2-(2-Chloro-6-fluorophenylamino)-3-methyl-N-((1r,4r)-4-methycyclohexyl)-3H-imidazo[4,5-b]pyridine-6-carboxamide] — higher, 100%
- CCCCC[C@H](C)NC(=O)c1cnc2c(c1)nc(Nc1c(Cl)cccc1Cl)n2C [Example 497, (S)-2-(2,6-Dichlorophenylamino)-N-(hept-2-yl)-3-methyl-3H-imidazo[4,5-b]pyridine-6-carboxamide] — the same, 98%
